Source: ChEMBL document CHEMBL1136185, “Linearized and truncated microcystin analogues as inhibitors of protein phosphatases 1 and 2A” (Bioorg Med Chem Lett, 2003)

Target: T1, Serine-threonine protein phosphatase 2A regulatory subunit (Gallus gallus, UniProt Q8AWE3)
T1 sequence (Q8AWE3 whole entry): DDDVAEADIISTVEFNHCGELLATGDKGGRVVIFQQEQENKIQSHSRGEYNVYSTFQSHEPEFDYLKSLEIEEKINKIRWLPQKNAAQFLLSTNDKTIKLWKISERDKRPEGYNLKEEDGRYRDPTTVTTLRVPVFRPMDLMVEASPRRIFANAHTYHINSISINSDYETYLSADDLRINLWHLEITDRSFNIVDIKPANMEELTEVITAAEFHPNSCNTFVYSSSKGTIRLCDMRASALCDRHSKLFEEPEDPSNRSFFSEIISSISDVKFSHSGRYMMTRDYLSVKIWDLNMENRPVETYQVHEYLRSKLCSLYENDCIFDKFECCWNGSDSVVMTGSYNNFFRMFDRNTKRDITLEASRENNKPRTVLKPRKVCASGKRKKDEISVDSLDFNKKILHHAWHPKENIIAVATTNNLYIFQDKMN
Assay: Inhibitory concentration required against protein phosphatase 2A using pNPP assay

Compound	IC50 [µM]
CO[C@@H](Cc1ccccc1)[C@@H](C)/C=C(C)/C=C/[C@H](NC(C)=O)[C@H](C)C(=O)N[C@H](CCC(=O)N(C)C)C(=O)O	20
CO[C@@H](Cc1ccccc1)[C@@H](C)/C=C(C)/C=C/[C@H](NC(C)=O)[C@H](C)C(=O)N[C@H](CCC(=O)N(C)CC(=O)N[C@H](C)C(=O)N[C@@H](CC(C)C)C(=O)O)C(=O)O	17
COC(=O)[C@@H](CCC(=O)N(C)C)NC(=O)[C@@H](C)[C@H](/C=C/C(C)=C/[C@H](C)[C@H](Cc1ccccc1)OC)NC(C)=O	> 100
CO[C@@H](Cc1ccccc1)[C@@H](C)/C=C(C)/C=C/[C@H](N)[C@H](C)C(=O)N[C@H](CCC(=O)N(C)CC(=O)N[C@H](C)C(=O)O)C(=O)O	270
C=C(C(=O)N[C@H](C)C(=O)N[C@@H](CC(C)C)C(=O)O)N(C)C(=O)CC[C@@H](NC(=O)[C@@H](C)[C@H](/C=C/C(C)=C/[C@H](C)[C@H](Cc1ccccc1)OC)NC(C)=O)C(=O)O	16
CO[C@@H](Cc1ccccc1)[C@@H](C)/C=C(C)/C=C/[C@H](NC(C)=O)[C@H](C)C(=O)N[C@H](CCC(=O)N(C)CC(=O)N[C@H](C)C(=O)O)C(=O)O	135
